From PMC9082844 (Journal of Biomedical Science, 2022)
Like-named read-outs stand apart in the source and are kept apart here.

Legend:
KDM4A = target: T1, KDM4A (Homo sapiens, UniProt O75164); test: FDH-coupled demethylase assay, KDM4A; format: biochemical; conditions: pyrocatechol analogue; read-out: inhibitory effect
T1 sequence (O75164 1-1064): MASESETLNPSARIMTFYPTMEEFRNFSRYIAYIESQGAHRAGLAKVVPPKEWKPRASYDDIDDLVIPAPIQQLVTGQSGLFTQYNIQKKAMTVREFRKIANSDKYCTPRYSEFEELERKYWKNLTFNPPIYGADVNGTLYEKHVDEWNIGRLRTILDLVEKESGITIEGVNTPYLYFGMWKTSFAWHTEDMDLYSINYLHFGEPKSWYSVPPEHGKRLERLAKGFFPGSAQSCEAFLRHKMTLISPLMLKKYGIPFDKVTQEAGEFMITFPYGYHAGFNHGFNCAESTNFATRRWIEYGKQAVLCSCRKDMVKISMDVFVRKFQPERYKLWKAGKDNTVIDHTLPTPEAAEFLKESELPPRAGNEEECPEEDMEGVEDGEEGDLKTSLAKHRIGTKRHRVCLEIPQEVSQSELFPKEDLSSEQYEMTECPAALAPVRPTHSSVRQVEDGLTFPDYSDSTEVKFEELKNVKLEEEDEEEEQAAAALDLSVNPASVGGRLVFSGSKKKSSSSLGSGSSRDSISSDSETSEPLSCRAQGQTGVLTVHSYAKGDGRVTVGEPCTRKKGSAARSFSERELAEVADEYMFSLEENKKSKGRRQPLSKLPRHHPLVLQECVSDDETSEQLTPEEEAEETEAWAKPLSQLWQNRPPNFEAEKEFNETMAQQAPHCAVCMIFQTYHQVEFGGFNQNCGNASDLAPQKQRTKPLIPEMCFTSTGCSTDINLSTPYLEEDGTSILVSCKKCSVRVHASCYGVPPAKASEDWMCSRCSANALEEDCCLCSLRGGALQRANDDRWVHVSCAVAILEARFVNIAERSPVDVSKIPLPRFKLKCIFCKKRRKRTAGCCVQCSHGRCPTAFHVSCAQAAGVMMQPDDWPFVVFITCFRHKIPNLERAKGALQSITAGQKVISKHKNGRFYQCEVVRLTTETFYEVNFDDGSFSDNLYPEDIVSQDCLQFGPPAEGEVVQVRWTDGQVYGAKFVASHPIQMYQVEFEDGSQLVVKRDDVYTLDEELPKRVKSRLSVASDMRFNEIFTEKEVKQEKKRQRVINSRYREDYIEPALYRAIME

JMJD2E/KDM4E = test system: JMJD2E/KDM4E; set-up: method as in PMID 24260783, PMID 21124847; conditions: in vitro; cited from earlier work
C4-2B cells = test: Histone methylation levels in treated C4-2B cells, western blot; format: cell-based; conditions: treated 2 days
Method: Total cell lysates were obtained by lysing the cell with buffer [50 mM Tris–HCl pH7.5 (Thermo Fisher Scientific, Waltham, MA, USA), 150 mM NaCl (Honeywell International, Inc., Charlotte, NC, USA), 0.5% Triton X-100 (Sigma-Aldrich), 10% glycerol (Honeywell International, Inc.), 1 mM EDTA (Affymetrix Inc.), and cock-tail protease inhibitors] for 15 min on ice, followed by 10 min of sonication cycle (30 s on, 30 s off) on ice. The level of total histone 3 and trimethylated histone H3K9 was analyzed by western blotting using anti-histone 3 (Cell Signaling, Danvers, MA, USA) and anti-H3K9me3 (Millipore, Burlington, MA, USA).
(§1) B H3K9me3 and H3K36me3 levels in myricetin-treated C4-2B cells for 2 days. The H3K9me3, H3K36me3, and H3 signals were detected in cell lysates by western blot analysis. M myricetin

C4-2B = test: MTT assay, C4-2B; format: cell-based; conditions: 72 h, 3 days, read-out: IC50, proliferation
LNCaP cells = test: MTT assay, LNCaP; format: cell-based; conditions: Homo sapiens, 72 h, 3 days, read-out: IC50, cell viability
Method: (§2) Cells (3 × 10^3) were seeded in a 96-well plate 1 day before the treatment. Cell proliferation was measured by MTT colorimetric assay according to the manufacturer’s instruction (Roche, Indianapolis, IN, USA).
The IC50 value of each drug was determined by treating cells with the drug (0‒160 μM) for three days. For combination evaluation, a twofold serial dilution of each drug and its combination points above and below its IC50 value was used in an array format. Combination index (CI) values were calculated by CompuSyn software. The values of the combination dose–response curve, which represents drug-effect-shift analysis, were normalized to IC50 values of each single molar concentration of drugs (IC50 eq), and the plots were generated by Graphpad Prism 7.
as §1

CWR22Rv1 = test: MTT assay, CWR22Rv1; format: cell-based; conditions: 3 days
Method: as §2, §1

[1] = cited from earlier work
KDM4B [2] = target: T2, KDM4B (Homo sapiens, UniProt O94953); test: FDH-coupled demethylase assay, KDM4B; format: biochemical
T2 sequence (O94953 1-1096): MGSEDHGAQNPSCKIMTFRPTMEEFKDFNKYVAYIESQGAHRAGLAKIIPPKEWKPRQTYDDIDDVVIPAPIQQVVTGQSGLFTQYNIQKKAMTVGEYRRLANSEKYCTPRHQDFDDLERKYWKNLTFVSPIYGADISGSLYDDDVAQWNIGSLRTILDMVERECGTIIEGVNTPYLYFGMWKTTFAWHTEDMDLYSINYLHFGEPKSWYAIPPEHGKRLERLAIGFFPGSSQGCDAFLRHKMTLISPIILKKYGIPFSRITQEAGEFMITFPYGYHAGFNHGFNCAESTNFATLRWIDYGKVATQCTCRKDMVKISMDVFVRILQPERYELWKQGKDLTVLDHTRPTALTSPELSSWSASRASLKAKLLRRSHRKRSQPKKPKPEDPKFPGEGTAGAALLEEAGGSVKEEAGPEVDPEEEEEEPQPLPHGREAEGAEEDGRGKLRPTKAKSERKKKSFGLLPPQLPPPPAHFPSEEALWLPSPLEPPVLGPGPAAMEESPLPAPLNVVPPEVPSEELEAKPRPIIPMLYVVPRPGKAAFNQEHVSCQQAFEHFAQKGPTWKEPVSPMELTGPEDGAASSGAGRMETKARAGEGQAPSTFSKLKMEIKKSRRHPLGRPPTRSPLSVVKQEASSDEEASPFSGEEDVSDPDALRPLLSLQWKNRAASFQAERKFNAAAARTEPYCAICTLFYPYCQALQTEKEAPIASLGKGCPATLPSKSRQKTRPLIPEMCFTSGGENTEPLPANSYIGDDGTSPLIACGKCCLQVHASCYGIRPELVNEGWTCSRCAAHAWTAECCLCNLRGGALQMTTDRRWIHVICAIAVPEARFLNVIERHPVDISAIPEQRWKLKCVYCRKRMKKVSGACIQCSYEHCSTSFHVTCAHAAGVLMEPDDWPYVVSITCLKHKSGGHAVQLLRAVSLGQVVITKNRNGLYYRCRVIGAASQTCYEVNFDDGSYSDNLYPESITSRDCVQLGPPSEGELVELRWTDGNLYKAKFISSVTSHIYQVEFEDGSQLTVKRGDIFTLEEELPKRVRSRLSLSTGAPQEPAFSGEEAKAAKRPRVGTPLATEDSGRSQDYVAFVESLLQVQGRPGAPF
Method: All the reagents were stored at -30 °C.

KDM4B [3] = target: T2, KDM4B; test: H3 demethylation with histones as substrate, Western blot, KDM4B; format: biochemical; conditions: 50 μM myricetin (legend also 100 μM inhibitor), 37 °C 30 min
RWPE-1 = test: MTT assay, RWPE-1; format: cell-based; conditions: immortalized normal RWPE-1, 3 days
Method: as §2, §1

LNCaP cell = test system: LNCaP cell; set-up: method as in PMID 24971742; conditions: cited from earlier work
C4-2B xenografts = test: C4-2B xenograft; format: in vivo, Balb/c nu/nu mice
Method: C4-2B cells (1 × 10^6 cells) were suspended in a culture medium and mixed with Matrigel Matrix (BD, Franklin Lakes, NJ, USA). The mixtures were implanted subcutaneously into six- to eight-week-old male Balb/c nu/nu mice. […] Tumor volumes were measured for up to 3 weeks. The tumor volume was calculated using the formula: length × width × height × 0.52. Statistical analysis was conducted as described below. The animal protocols for mice experiments were approved by National Tsing Hua University Institutional Animal Care and Use Committee (approval number: NTHU-IACUC-10478) and carried out under the institutional guidelines with animal welfare standards.
Cells were treated with different concentrations of M or PLGA-M for 24 h, followed by MTT assay. B C4-2B cells (1 × 10^6) were implanted subcutaneously in the hindlimb of nude mice. […] Tumor volumes were measured for up to 3 weeks. Tumor volume was calculated using the formula (length × width × height × 0.52). Statistical significance was evaluated using Student’s t-test. C Representative IHC images of Ki67 and CD31 analysis of xenograft tumor sections from mice treated with vehicle, PLGA-M, Enza, or Enza + PLGA-M. D The proportion of Ki67 + cell was rescored in each field (400 ×) for six random fields in each group of IHC images. CD31 positive vessels in each field (100 ×) were scored for six random fields in each group. Significance was calculated using Student’s t-test. *P < 0.05; **P < 0.01; ***P < 0.001

## O=C(O)c1ccc(O)c(O)c1 [BPRKD063S0, 3,4-dihydroxybenzoic acid]
KDM4A
  IC50: 0.56 µM

## CN(C)CCCNC(=O)c1ccc(-c2cc(O)c3ncccc3c2)cc1 [ML324]
JMJD2E/KDM4E
  inhibitory activity toward JMJD2E/KDM4E: submicromolar

## O=c1c(O)c(-c2cc(O)c(O)c(O)c2)oc2cc(O)cc(O)c12 [Myricetin, 3,5,7-trihydroxy-2-(3,4,5-trihydroxyphenyl)-4H-chromen-4-one]
C4-2B cells
  H3K9me3 level vs untreated cells: higher level
  H3K36me3 signal vs untreated cells: comparable
C4-2B
  IC50: 20.6 ± 0.9 µM
LNCaP cells
  IC50: 18.5 ± 0.8 µM
CWR22Rv1
  proliferation: significantly reduced
[1]
  bioavailability through the oral route: poor
KDM4B [2]; increasing concentrations of H3K9me3 peptide, read-out: Ki, non-competitive with H3K9me3 peptide, KDM4B
  Ki: 1.01 µM
KDM4B [2]; increasing concentrations of α-KG, Lineweaver–Burk, read-out: Ki, competitive with α-KG, KDM4B
  Ki: 0.53 µM
KDM4B [3]
  demethylation of H3K9me3 or H3K36me3 by KDM4B: blocked
RWPE-1
  effect on cell growth: essentially no effect

## O=[N+]([O-])c1cc([N+](=O)[O-])c(/C=C/c2ccc(Cl)c(Cl)c2)cc1/C=C/c1ccc(Cl)c(Cl)c1 [NSC636819]
LNCaP cell
  LNCaP cell proliferation: strongly inhibits

## O=c1c(O)c(-c2ccc(O)c(O)c2)oc2cc(O)cc(O)c12 [Quercetin, 2-(3,4-dihydroxyphenyl)-3,5,7-trihydroxychromen-4-one]
KDM4B [2]; FDH-coupled assay
  IC50: 2.4 µM
KDM4B [2]; FDH-coupled assay, compound concentration not given
  KDM4B Relative Activity (%): 5.3%

## CNC(=O)c1ccc(N2C(=S)N(c3ccc(C#N)c(C(F)(F)F)c3)C(=O)C2(C)C)cc1F [enzalutamide]
C4-2B xenografts; PLGA-M i.p. 20 mg/kg three times a week, Enza oral 12.5 mg/kg five times a week, p = 0.0002
  tumor growth vs vehicle at day 13: significant impairment of tumor growth
C4-2B xenografts; vs vehicle group
  CD31 in xenografts (IHC): significantly higher level of CD31 was detected in the vehicle group
  Ki-67 expression in xenografts (IHC): significantly lower
